# Tests used:
# [1] = test system: mouse; experiment: micro-CT bone formation assay in mice for SOST antagonist candidates; assay type: in vivo; settings: test vs control solution, complete dosing schedule
# Description: Compounds useful in the methods of the present invention can be identified via a variety of methods known to one of skill in the art. Several exemplary methods for identifying such antagonists are described herein, including cell-based and in vitro techniques (Journal of Bone and Mineral Research 2006, 21(11), 1738-1749). A general method of identifying SOST antagonists involves evaluating the effects of antagonist candidates on bone formation under controlled conditions. Preferably bone formation is determined using micro-CT techniques on live animals. Preferred animals include rodents, more preferred are primates. Femur, tibia and vertebrae bones are particularly useful subjects for such study.
# Briefly, the test animal is treated with a predetermined dose of a SOST antagonist candidate. […]
# Once the dosing schedule has been completed, both test and control animals are examined to determine the quantity of bone formation present. […] Where necessary, levels of bone formation can be calculated by determining the volume of bone formation present in each animal. […]
# For example, the mouse test animal is treated with a predetermined dose of a SOST antagonist candidate for a complete dosing schedule. […] Once the dosing schedule has been completed, both test and control animals are examined with sacrifice using micro-CT to determine the quantity of bone formation present.
# [2] = test system: Wnt pathway; experiment: Wnt pathway modulation to promote bone growth (FIG. 1); settings: doses of 2.5 ng (low), 60 ng (medium), 125 ng (high)
# [3] = test system: C57BL/6 mice; experiment: Bone growth in four month old male C57BL/6 mice, daily i.p. for 30 days (uCT, histomorphometry, pQCT); assay type: in vivo, mouse
# Description: Study endpoints included measurement of trabecular lumbar vertebrae 5 (LVB5) by uCT, showing 65% increase in bone volume over baseline at 75 mg/kg (FIG. 2).
compound,measurement,setting,value
COc1cc2c(cc1O)C[C@H]1c3c(cc(O)c(OC)c3-2)CCN1C [(S)-boldine],bone growth (quantity of bone formation by micro-CT),[1],promoting bone growth
same,modulating the Wnt pathway to promote bone growth,[2],modulating the Wnt pathway to promote bone growth
same,"increase in BV/TV of femur over baseline controls, pQCT",[3]; 60 mg/kg,8%
same,"increase in bone volume over baseline, trabecular lumbar vertebrae 5 (LVB5) by uCT","[3]; 75 mg/kg i.p. daily for 30 days, male C57BL/6 mice, FIG. 2",65%
same,"increase in BV/TV in trabecular long bone over saline controls, histomorphometry","[3]; all animals in both L (0.75 mg/kg) and H (75 mg/kg) groups, i.p. daily 30 days, p=0.05",78%
